Laboratory results: ChEMBL document CHEMBL1201862, “PubChem BioAssay data set” (2004)
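Values below derive from 48-hour exposures of cells grown in 96-well plates, with endpoints linearly interpolated between the two concentrations bracketing the appropriate inhibition level. The concentration for 50% growth inhibition is given as GI50.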 Calls of active or inactive are those of the source. Cut-off read from the data, not from the text of the source: active = GI50 up to about 1.1 µM and inactive = higher.

What was measured:
Test in all cases: growth of human tumour cells (NCI), 48 h
[1] = tested on: NCI-H23
[2] = tested on: MDA-N
[3] = tested on: K562
[4] = tested on: COLO 205
[5] = tested on: SNB-19
[6] = tested on: NCI-H226
[7] = tested on: CCRF-CEM
[8] = tested on: SF-268
[9] = tested on: IGROV-1
[10] = tested on: DU-145
[11] = tested on: SK-MEL-5
[12] = tested on: T47D
[13] = tested on: KM12
[14] = tested on: MDA-MB-435
[15] = tested on: OVCAR-8
[16] = tested on: HL-60
[17] = tested on: BT-549
[18] = tested on: 786-0
[19] = tested on: RPMI-8226

Structure (SMILES) | GI50 [1] | GI50 [2] | GI50 [3] | GI50 [4] | GI50 [5] | GI50 [6] | GI50 [7] | GI50 [8] | GI50 [9] | GI50 [10] | GI50 [11] | GI50 [12] | GI50 [13] | GI50 [14] | GI50 [15] | GI50 [16] | GI50 [17] | GI50 [18] | GI50 [19]
NS(=O)(=O)c1cc(Cl)c(NC(=S)NC(=O)Nc2ccc(Cl)c(Cl)c2)c(Cl)c1 | 31.6 µM (inactive) | 33.6 µM (inactive) | 35.2 µM (inactive) | 18 µM (inactive) | 42.9 µM (inactive) | 30.8 µM (inactive) | 6.97 µM (inactive) | 56.8 µM (inactive) | 81.1 µM (inactive) | 67 µM (inactive) | 18.3 µM (inactive) | 23.8 µM (inactive) | 34.7 µM (inactive) | 32.7 µM (inactive) | 47.6 µM (inactive) | 21.8 µM (inactive) | 55.2 µM (inactive) | 39 µM (inactive) | 
CCCCCCCCCC1(N=[N+]=[N-])C(=O)c2ccccc2N(C)C1=O (stereo unspecified) | 25.6 µM (inactive) | 30.7 µM (inactive) | 19.8 µM (inactive) | 32 µM (inactive) | 54.7 µM (inactive) |  | 16.8 µM (inactive) | 40 µM (inactive) | 27.2 µM (inactive) | 28.7 µM (inactive) | 13 µM (inactive) | 3.4 µM (inactive) | 48 µM (inactive) | 2.58 µM (inactive) |  | > 100 µM (inactive) | 28.1 µM (inactive) | 38.5 µM (inactive) | 39.9 µM (inactive)
CCOC(=O)NC(=S)NC(C)c1ccccc1 (stereo unspecified) | > 100 µM (inactive) | > 100 µM (inactive) | > 100 µM (inactive) | > 100 µM (inactive) | > 100 µM (inactive) | > 100 µM (inactive) | > 100 µM (inactive) | > 100 µM (inactive) | > 100 µM (inactive) | > 100 µM (inactive) | > 100 µM (inactive) | 98.6 µM (inactive) | > 100 µM (inactive) | > 100 µM (inactive) | > 100 µM (inactive) |  | > 100 µM (inactive) | > 100 µM (inactive) | 27.2 µM (inactive)
COc1ccc(/N=N/c2ccc3oc(=O)c(C(=O)Nc4ccccc4)cc3c2)cc1 | > 10 µM (inactive) | > 10 µM (inactive) |  | > 10 µM (inactive) | > 10 µM (inactive) | > 10 µM (inactive) |  | > 8.32 µM (inactive) | > 10 µM (inactive) | > 6.85 µM (inactive) | > 10 µM (inactive) | 4.5 µM (inactive) | > 10 µM (inactive) | > 10 µM (inactive) | > 8.51 µM (inactive) | 3.16 µM (inactive) | > 10 µM (inactive) | > 10 µM (inactive) | > 10 µM (inactive)
Cc1c(CN2CCN(C)CC2)c(CN2CCN(C)CC2)c(C)n1-c1ccc(Cl)cc1 | 54.2 µM (inactive) | 21 µM (inactive) | 23.4 µM (inactive) | 20.4 µM (inactive) | > 100 µM (inactive) | 33.6 µM (inactive) | 19.3 µM (inactive) | 44.4 µM (inactive) | 31.2 µM (inactive) | > 100 µM (inactive) | 16.8 µM (inactive) | 19.2 µM (inactive) | 34 µM (inactive) | 25.1 µM (inactive) | 19.9 µM (inactive) |  | 45 µM (inactive) | 16.9 µM (inactive) | 47.2 µM (inactive)
N#CC12C(=O)N=C(N)C1(C#N)C(c1ccco1)NC1=C2CCCC1 (stereo unspecified) | > 100 µM (inactive) | > 100 µM (inactive) |  | > 100 µM (inactive) | > 100 µM (inactive) | > 100 µM (inactive) | > 100 µM (inactive) | > 100 µM (inactive) | > 100 µM (inactive) | > 100 µM (inactive) | > 100 µM (inactive) | > 100 µM (inactive) | > 100 µM (inactive) | > 100 µM (inactive) | > 100 µM (inactive) | > 100 µM (inactive) | > 100 µM (inactive) | > 100 µM (inactive) | > 100 µM (inactive)
CN(C)/N=N/c1nc2c(c(=O)n(C)c(=O)n2C)n1C |  | > 100 µM (inactive) | > 100 µM (inactive) | > 100 µM (inactive) | > 100 µM (inactive) | > 100 µM (inactive) | > 100 µM (inactive) | > 100 µM (inactive) | > 100 µM (inactive) | > 100 µM (inactive) | > 100 µM (inactive) | 14.3 µM (inactive) | > 100 µM (inactive) | > 100 µM (inactive) | > 100 µM (inactive) |  | > 100 µM (inactive) | > 100 µM (inactive) | > 100 µM (inactive)
Cc1cc(S(=O)(=O)/N=C(\NN)NNc2cccc(C(F)(F)F)n2)c(S)cc1Cl |  | 14.8 µM (inactive) | 22.7 µM (inactive) | 19.5 µM (inactive) | 24.3 µM (inactive) | 18.3 µM (inactive) | 23.3 µM (inactive) | 21.4 µM (inactive) | > 10 µM (inactive) | 18.5 µM (inactive) | 20 µM (inactive) | 17.8 µM (inactive) | 16.9 µM (inactive) | 18.2 µM (inactive) | 24.8 µM (inactive) | 27.4 µM (inactive) | 13.3 µM (inactive) | 19.4 µM (inactive) | 32.1 µM (inactive)
CCOC(=O)c1c(O)nc2cccc3c2c1-c1cccnc1S3 | 21 µM (inactive) | 39 µM (inactive) | 32.1 µM (inactive) | 35.9 µM (inactive) | 33.8 µM (inactive) | 19.9 µM (inactive) | 24 µM (inactive) | 28.8 µM (inactive) | 16.9 µM (inactive) | 44.6 µM (inactive) | 11.7 µM (inactive) | 9.86 µM (inactive) |  | 28.8 µM (inactive) | 35.5 µM (inactive) | 20.3 µM (inactive) | 22.4 µM (inactive) | 36 µM (inactive) | 17.5 µM (inactive)
COC1=C(OC)C(=O)C(Cc2c(C)nc3sc(C)cn23)=C(C)C1=O | 15 µM (inactive) | 18 µM (inactive) | 16.9 µM (inactive) | 19.3 µM (inactive) | 19 µM (inactive) |  | 7.13 µM (inactive) | 17.7 µM (inactive) | 17.4 µM (inactive) | 20.2 µM (inactive) | 15.2 µM (inactive) | 34.1 µM (inactive) | 26.3 µM (inactive) | 17.9 µM (inactive) | 17.1 µM (inactive) | 11.6 µM (inactive) | 16.9 µM (inactive) | 19.7 µM (inactive) | 16.3 µM (inactive)
Nc1nc(I)nc2c1ncn2C1OC(COS(N)(=O)=O)C(O)C1O (stereo unspecified) | < 0.01 µM (active) | < 0.01 µM (active) | < 0.01 µM (active) | < 0.01 µM (active) | < 0.01 µM (active) | < 0.01 µM (active) | < 0.01 µM (active) | < 0.01 µM (active) | 0.0128 µM (active) | < 0.01 µM (active) | < 0.01 µM (active) | < 0.01 µM (active) | < 0.01 µM (active) | < 0.01 µM (active) | < 0.01 µM (active) |  | < 0.0108 µM (active) | < 0.0106 µM (active) | 0.0179 µM (active)
N[C@@H](CCC(=O)NCP(=O)(O)O)C(=O)O | > 100 µM (inactive) | > 100 µM (inactive) | > 100 µM (inactive) | > 100 µM (inactive) | > 100 µM (inactive) |  |  |  | > 100 µM (inactive) |  | > 100 µM (inactive) | > 100 µM (inactive) | > 100 µM (inactive) | > 100 µM (inactive) | > 100 µM (inactive) | > 100 µM (inactive) | > 100 µM (inactive) | > 100 µM (inactive) | > 100 µM (inactive)
Cc1cc2c(cc1C)[n+]([O-])c(N1CCN(c3ccc([N+](=O)[O-])cc3)CC1)c(C#N)[n+]2[O-] | 25.6 µM (inactive) | > 100 µM (inactive) |  | > 100 µM (inactive) | 18 µM (inactive) | 35.6 µM (inactive) | > 100 µM (inactive) | 41.7 µM (inactive) | 25.3 µM (inactive) | 32.8 µM (inactive) | 75.7 µM (inactive) | 16.3 µM (inactive) | > 100 µM (inactive) | > 100 µM (inactive) | 16.6 µM (inactive) | > 100 µM (inactive) | 32.4 µM (inactive) | 14.1 µM (inactive) | > 100 µM (inactive)
CC(=O)O[C@H]1/C(=C/c2ccncc2)C[C@H]2[C@@H]3CC=C4C[C@@H](N5CCCC5)CC[C@]4(C)[C@H]3CC[C@]12C | 15.1 µM (inactive) |  | 2.74 µM (inactive) | 11.4 µM (inactive) | 16.9 µM (inactive) | 19.3 µM (inactive) | 15.2 µM (inactive) | 15.1 µM (inactive) | 12.6 µM (inactive) | 14.6 µM (inactive) | 8.53 µM (inactive) | 13.4 µM (inactive) | 11.9 µM (inactive) | 12.1 µM (inactive) | 14 µM (inactive) | 8.38 µM (inactive) | 20.5 µM (inactive) | 3.15 µM (inactive) | 6.1 µM (inactive)
Cc1nc2c(=O)n(C)c(=O)n(C)c2o1 | > 100 µM (inactive) | > 100 µM (inactive) | > 100 µM (inactive) | > 100 µM (inactive) | > 100 µM (inactive) | > 100 µM (inactive) | > 100 µM (inactive) | > 100 µM (inactive) | > 100 µM (inactive) |  | > 100 µM (inactive) | > 100 µM (inactive) | > 100 µM (inactive) | > 100 µM (inactive) | > 100 µM (inactive) |  | > 100 µM (inactive) | > 100 µM (inactive) | > 100 µM (inactive)
O=C(O)CCCc1ccc2ccccc2c1 | > 100 µM (inactive) | > 100 µM (inactive) | > 100 µM (inactive) | > 100 µM (inactive) | > 100 µM (inactive) |  | > 100 µM (inactive) | > 100 µM (inactive) | > 100 µM (inactive) | > 100 µM (inactive) | > 100 µM (inactive) | > 100 µM (inactive) | > 100 µM (inactive) | > 100 µM (inactive) | > 100 µM (inactive) | > 100 µM (inactive) | > 100 µM (inactive) | > 100 µM (inactive) | 42.9 µM (inactive)
